Results published in a melting point compilation (Tetko et al.; mined from patent text by program, amines drawn as free bases though some values may be those of a salt).

| melting point | SMILES |
| --- | --- |
| 220 to 222 °C | CN1C(=O)C(C(=O)Nc2ccc(Cl)cc2)S(=O)(=O)c2ccccc21 (centres undefined) |
| 153 °C | CC1(C)CC(NC=O)CC(C)(C)N1 |
| 204 to 205 °C | Cc1cccc(-c2nc3cccnn3c2-c2ccnc(NC(=O)c3cccc(F)c3)c2)c1 |
| 237 to 238 °C | CNc1nc(N)nc(-c2ccc(-c3ccccc3)cc2)n1 |
| 89 to 90 °C | C[C@H](C(=O)O)[C@H](O)c1ccccc1 |
| 145 °C | CCOc1ccc(C(=O)Nc2ccc3ccc(OC)nc3n2)cc1 |
| 143 to 146 °C | Cc1nc(-c2cc3cc(OCCNC[C@@H](O)c4csc(C(F)(F)F)n4)ccc3o2)no1 |
| 54 to 60 °C | CCCCCCCCCCCCCCCCCC(=O)OCCOc1ccc(C2C(=O)Oc3c2cc(C(C)(C)C)cc3C(C)(C)C)cc1 (centres undefined) |
| 111 to 113 °C | COc1ccc2c(c1)CCC1=C2CCC2(C)C(=O)CC=C12 (centres undefined) |
| 224 to 225 °C | Cc1ccc(-c2ccc3c(c2)C=C(C(=O)O)CC(C)O3)cc1 (centres undefined) |
| 114 to 115 °C | CC(=O)Nc1ccc(CO)cc1[N+](=O)[O-] |
| 97 to 99 °C | CCOC(=O)C(C)=Cc1cn(-c2cccnc2)c2ccccc12 |
| 94 to 95 °C | Cn1cc(Br)nc(Br)c1=O |
| 146 °C | CNC1NC(=O)c2sccc2-n2cccc21 (centres undefined) |
| 205 °C | C=CC(=O)Nc1n[nH]c2cc(Cl)ccc12 |
| > 200 °C | N=c1[nH]c(=N)c2ncn(C3OC(CO)C(O)C3O)c2c(=N)[nH]1 (centres undefined) |
| 145 to 146 °C | O=C(O)COc1ccc(F)cc1C(=O)NCc1ccc(Br)cc1F |
| 152 to 155 °C | O=C(NCNC(=O)c1ccccc1C(=O)C1CCCCC1)OCc1ccccc1 |
| 155 to 157 °C | O=C(O)C(NC(=O)C(F)(F)F)c1ccccc1 (centres undefined) |
| 126 to 127 °C | O=c1c(-c2ccc(Cl)cc2)c(CCC2CC2)nc2ccccn12 |
| 89 to 92 °C | CCOC(=O)c1cccc(NC(=O)C(CSC(C)=O)Cc2ccccc2)c1 (centres undefined) |
| 107 to 111 °C | CCCCCCCCCCCCCC(=O)NN |
| 110 °C | N#Cc1ccn2c1CSC2c1cccnc1 (centres undefined) |
| 60 °C | CCCCCCCCCCCCCCCCC#CCO |
| 168 to 170 °C | CCOC(=O)C1=C(C2CC2)Nc2n[nH]cc2C1c1cccc(C#N)c1Br (centres undefined) |

| melting point | SMILES |
| --- | --- |
| 276 to 278 °C | COc1cc2ncnc(N3CCc4cc([N+](=O)[O-])c(Cl)cc43)c2cc1OC |
| 124 °C | Cc1c(F)c(F)c(C(O)C#N)c(F)c1F (centres undefined) |
| 70 to 73 °C | Cc1ccc(C(C)(C)C)c(SC2=C(O)CC(CCc3ccccc3)(c3ccc(OCCO)cc3)OC2=O)c1 (centres undefined) |
| 192 to 193 °C | CCCc1noc(/C=C/c2cn(-c3ccccc3)nc2OCc2ccc(OCc3nc(-c4ccco4)oc3C)c(OC)c2)n1 |
| 97 °C | CCOC(=O)c1cn2cccc(C(=O)OCC)c2n1 |
| 163 to 165 °C | COC(=O)C(CCSC)N(C(=O)OC(C)(C)C)C(=O)c1ccc(N)c(OC)c1 (centres undefined) |
| 184 to 185 °C | O=C(Nc1nc(C(F)(F)F)c(I)s1)c1cccs1 |
| 157 to 160 °C | CC(C)(C)OC(=O)N1CCC(C)(c2nc(-c3ccncc3)c(-c3ccc(F)cc3)[nH]2)CC1 |
| 245 to 247 °C | CCOC(=O)c1ccc2cc(-c3cccc4ccccc34)ccn2c1=O |
| 169 to 170 °C | Cc1c(CCC(=O)O)c2cc(Br)ccc2n1Cc1ccc(Br)cc1 |
| 188 °C | OC1CSC(Oc2ccc(-c3cncnc3)nc2)C(O)C1O (centres undefined) |
| 176 to 178 °C | O=C(O)c1ccc(CCCC2SCC(=O)N2CCC2(O)C3CCCC2CCC3)cc1 (centres undefined) |
| 155 to 157 °C | CCn1nc(-c2cccs2)c(C(=O)OCCOC(C)=O)c(Nc2cncc3ccccc23)c1=O |
| 119 °C | Cn1nc(C(F)(F)F)cc1Oc1nc(Oc2cc(C(F)(F)F)nn2C)c(F)c(Oc2cc(C(F)(F)F)nn2C)c1F |
| 128 to 130 °C | CCN(CC)CCNC(=O)N1CCC(S(=O)c2ccc(Cl)cc2)C1 (centres undefined) |
| > 280 °C | Cc1c(N)c(F)cc2c(=O)c(C(=O)O)cn(-c3cc(O)c(F)cc3F)c12 |
| 39 °C | CN(C)C(=O)N(COCCCl)c1ccc(C(F)(F)F)cc1 |
| 150 to 152 °C | CCOC(=O)CC(=O)c1cc(C(CC(C)C)NC(=O)Cc2ccc(NC(=O)Nc3ccccc3Cl)cc2)no1 (centres undefined) |
| 123 to 124 °C | COC(=O)c1cc(OCc2nc(-c3ccccc3)oc2C)no1 |
| 250 to 252 °C | COc1ccc(OC)c(C=C2NC(=O)NC2=O)c1 |
| 62 to 65 °C | Cc1ccc(N(Cc2cccnc2)S(C)(=O)=O)c(C)c1 |
| 172 °C | C#CCc1ccc2c(C)c(C(=O)O)c(=O)oc2c1 |
| 221 to 223 °C | O=C(Nc1ccc(C(=O)N2CC(C(=O)O)Cc3ccccc32)cc1)c1cc(Cl)cc(Cl)c1 (centres undefined) |
| 204 to 206 °C | CC(C)(C)OC(=O)NCCc1c[nH]c2ccc(CCO)cc12 |

Second part, the molecule before the results:

| SMILES | melting point |
| --- | --- |
| O=c1c2ccccc2n(SC(Cl)(Cl)Cl)c(=O)n1SC(Cl)(Cl)Cl | 154 to 156 °C |
| CCCCCCCCCCCCc1ccc(C(=O)c2ccccc2C(=O)O)cc1 | 85 °C |
| CCc1c(C)nc(OC)c(NC(=O)C(C)(C)C)c1Cc1cc(C)cc(C)c1 | 138 to 139 °C |
| CSC(=Cc1ccc(N)cc1)S(C)=O (centres undefined) | 165 to 166 °C |
| O=C1Cc2cc(NC(=O)c3ccccc3[N+](=O)[O-])ccc2N1 | 265 °C |
| COc1cc(Nc2nccc(-c3ccc(NC4CCN(Cc5ccccc5)CC4)nc3)n2)cc(OC)c1OC | 113 to 114 °C |
| O=C1OC(CO)CN1c1ccc(N2CC3CSCC3C2)c(F)c1 (centres undefined) | 165 to 167 °C |
| CCC(=O)N1CCC(C(=O)OC2c3ccccc3C(=O)N2c2ccc3ccc(Cl)nc3n2)CC1 (centres undefined) | 189 °C |
| CC(CC1=Nc2cc(Cl)ccc2S(=O)(=O)N1)CC(C)(C)C (centres undefined) | 243 to 244 °C |
| Cc1ccccc1-n1nc(-c2cccc(C(=O)O)c2)[nH]c1=O | > 310 °C |
| COc1cccc(-c2c(/C=C/C(=O)NCCCCc3cccnc3)ccc3ccc(OC)cc23)c1 | 108 to 110 °C |
| CC(=O)NC[C@H]1CN(c2ccc(N3CCC(O)(CC#N)CC3)c(F)c2)C(=O)O1 | 162 to 164 °C |
| CCCc1c(SC(=S)N(CC)CC)c2cc(Br)ccc2oc1=O | 135 to 137 °C |
| OC1CSC(Oc2ccc(-c3cccnc3F)nc2Cl)C(O)C1O (centres undefined) | 153 °C |
| N#Cc1c(OCCO)nc(CCO)nc1N1CCc2ccccc2CC1 | 118 to 120 °C |
| CCN1C(=S)NNC1c1ccccc1NC(C)=O (centres undefined) | 193 to 194 °C |
| CC(C)c1cccc(C(C)C)c1NC(=O)CN1CN(c2ccccc2)C2(CCCCC2)C1 | 151 to 153 °C |
| CC(=O)OC1CCC2C3C(Sc4ccc(Br)cc4)C(=O)c4cc(O)ccc4C3CCC12C (centres undefined) | 190 to 192 °C |
| Cc1cc(NC(=O)CC(C)(C)C)c(C)c2c1OC(C)(C)C2c1ccc(C(C)C)cc1 (centres undefined) | 118 to 119 °C |
| CCOC(=O)c1cn(-c2nsnc2C)c2nc(Cl)c(F)cc2c1=O | 192 °C |
| COC(=O)CC[C@H](NC(=O)c1ccc(C#Cn2cnc3nc(NC(=O)C(C)(C)C)cc-3c2O)cc1)C(=O)OC | 280 to 285 °C |
| Cc1cccc(NC(c2ccc(F)c(F)c2)c2ccc3cccnc3c2O)n1 (centres undefined) | 162 to 165 °C |
| ON=C1CCN(CC2c3ccccc3CCc3ccccc32)CC1 | 199 to 202 °C |
| CCCCc1nc2cccc(COC)c2n1Cc1ccc(-c2ccccc2CO)cc1 | 126 to 127 °C |
| COc1cc2[nH]c(=O)c(-c3csc(-c4ccncc4)n3)c(N)c2cc1OC | > 250 °C |

| SMILES | melting point |
| --- | --- |
| CCOC(=O)C(O)CCc1ccc(OC)c(OCc2ccccc2)c1 (centres undefined) | 93 to 94 °C |
| COc1cc2nc(C(=O)O)c(=O)n(C)c2cc1OC | 261 °C |
| Cc1cccc(C(=O)Nc2cn(C3CCCCO3)nc2C(=O)NCCC#N)n1 (centres undefined) | 186 to 187 °C |
| Cc1oc(-c2ccc3ccccc3c2)nc1COc1ccc(/C=C/CO)cc1 | 159 to 160 °C |
| CN1C(C)(C)CC(OP2OCC3(CO2)COP(OC2CC(C)(C)N(C)C(C)(C)C2)OC3)CC1(C)C (centres undefined) | 106 °C |
| COc1ccc2cc([C@H](C)C(=O)OCC(=O)N3CCC(CO[N+](=O)[O-])CC3)ccc2c1 | 94 to 95 °C |
| COC(=O)C[C@H]1C[C@@H](CCc2c(-c3ccc(F)cc3)c(-c3ccccc3)c(C(=O)NCc3ccccc3)n2C(C)C)OC(C)(C)O1 | 65 to 67 °C |
| CNC(=O)c1ccc(F)c2c1CC(N(CCc1c[nH]c3ccc(F)cc13)C1CCC1)CO2 (centres undefined) | 131 °C |
| Brc1ccc2c(c1)/C(=C/CCN1CCCC1)c1cc(Br)ccc1OC2 | 102 to 103 °C |
| CCOC(=O)c1ccc(C=CCN2CCc3nc(N)sc3CC2)cc1 | 111 to 115 °C |
| CCOC1=CC2=CC[C@@H]3[C@H](CC[C@]4(CC)C(=O)C=C[C@@H]34)[C@H]2CC1 | 137 °C |
| CCN1C(=O)C(C(=O)Nc2ccc(F)cc2F)c2cc(C3(C)OCCO3)ccc21 (centres undefined) | 166 to 170 °C |
| COC(=O)c1sc(C(=O)OC)c(OC)c1C | 61 to 64 °C |
| Cc1noc2c1C(=O)C(CCCN1CCC(C(=O)c3ccc(F)cc3)CC1)CC2 (centres undefined) | 81 to 83 °C |
| CCCc1c(OCc2ccc(/C=C3\SC(=S)NC3=O)cc2)ccc(C(=O)c2ccccc2)c1O | 229 to 230 °C |
| CC(=O)c1nc(-c2ccc(=O)n(C(C)C)n2)c(-c2ccccc2)nc1N | 234 to 236 °C |
| COCCNC(=O)COc1ccc(C(=O)CN2CCN(c3ccncc3)CC2)cc1 | 142 to 145 °C |
| CC(=O)OCN=C(O)c1cc(C(O)=NCOC(C)=O)c(C(=O)O)cc1C(=O)O | 237 to 238 °C |
| C=CCc1[nH]cc(C#N)c1-c1ccc(Cl)cc1C(=O)c1ccccc1F | 142 to 144 °C |
| NC(=O)c1nn(-c2ccc3c(c2)OCO3)c2c1CCc1ccc(NC(=O)c3cc(Cl)ncc3Cl)cc1-2 | 292 to 293 °C |
| NC(=O)c1nc(-c2ccc3nc[nH]c3c2)nc2c1[nH]c(=O)n2-c1ccccc1F | 278 °C |
| COC(=O)[C@@H](Cc1ccccc1)NC(=O)OCc1cc2cc(-c3ccccc3)ccc2[nH]1 | 142 to 143 °C |
| COC(=O)c1ccccc1Oc1ccc(C(F)(F)F)cc1[N+](=O)[O-] | 69 to 70 °C |
| O=C(O)COc1cc2c(c(Cl)c1Cl)C(=O)C(c1ccc(F)cc1)C2 (centres undefined) | 189 to 190 °C |
| CCc1cccc2cc(C(C)=O)oc12 | 59 to 60 °C |
